How the values were obtained:
human MetAP2 enzyme [1] = target: T1, human MetAP2 enzyme (Homo sapiens, UniProt P50579); experiment: MetAP2 enzyme assay, enzyme complexed with manganese ions; settings: MetAP2 Mn pIC50, MetAP2 enzyme complexed with manganese ions; Met-AMC substrate at Km
Method: DNA encoding the full-length sequence of human MetAP2 enzyme is amplified by PCR and cloned into a pFastBac expression vector (Invitrogen). Recombinant baculovirus incorporating the MetAP2 construct is generated by transposition using the Bac-to-Bac system (Invitrogen). The expression of recombinant protein is carried out by infection of Spodoptera frugiperda Sf9 cells (Invitrogen) in 5 L Wave Bioreactors (Wave Biotech). Recombinant protein is isolated from cellular extracts by binding to an SP Hitrap Fast Flow or SP Sepharose (Sigma) column, and the protein is eluted using a NaCl gradient. Partially purified extracts of MetAP2 are further purified by an AKTA FPLC over a Superdex-200 column (GE). The purity of MetAP2 protein is determined on denaturing SDS-PAGE gel.
The results for each well are expressed as percent inhibition and calculated using the equation:

human MetAP2 enzyme [2] = target: T1, human MetAP2 enzyme; experiment: MetAP2 enzyme assay, enzyme complexed with cobalt ions; settings: MetAP2 Co pIC50, MetAP2 enzyme complexed with cobalt ions; Met-AMC substrate at Km

T1 sequence (P50579 whole entry): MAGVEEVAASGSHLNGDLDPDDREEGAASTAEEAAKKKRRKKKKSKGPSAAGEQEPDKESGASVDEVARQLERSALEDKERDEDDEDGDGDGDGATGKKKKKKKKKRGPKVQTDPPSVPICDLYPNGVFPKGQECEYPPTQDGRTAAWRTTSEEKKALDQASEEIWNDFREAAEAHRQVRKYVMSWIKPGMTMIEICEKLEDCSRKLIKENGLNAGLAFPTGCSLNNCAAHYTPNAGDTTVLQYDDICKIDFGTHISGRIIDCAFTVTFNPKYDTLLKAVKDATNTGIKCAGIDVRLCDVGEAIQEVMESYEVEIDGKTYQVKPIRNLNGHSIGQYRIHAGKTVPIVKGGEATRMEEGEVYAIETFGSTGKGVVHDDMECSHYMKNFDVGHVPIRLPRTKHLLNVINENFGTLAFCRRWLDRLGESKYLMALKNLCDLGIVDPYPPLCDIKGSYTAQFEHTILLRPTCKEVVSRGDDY

Structure (SMILES) | IC50 (human MetAP2 enzyme [1]) | IC50 (human MetAP2 enzyme [2])
Cc1nc(N2C[C@H]3C[C@H]3C2C(N)=O)ncc1-c1cc(C(F)(F)F)cc2[nH]ncc12 (stereo partly drawn) [Example 415, (1R,5S)-3-(4-methyl-5-(6-(trifluoromethyl)-1H-indazol-4-yl)pyrimidin-2-yl)-3-azabicyclo[3.1.0]hexane-2-carboxamide] | 7.94 nM | 10 nM
COCc1ccc(-c2cc(C(F)(F)F)cc3[nH]ncc23)cc1 [Example 48, 4-(4-(methoxymethyl)phenyl)-6-(trifluoromethyl)-1H-indazole] | 5.01 nM | 50.1 nM
NC(=O)Cn1cc(-c2cc(C(F)(F)F)cc3[nH]ncc23)cn1 [Example 264, 2-(4-(6-(trifluoromethyl)-1H-indazol-4-yl)-1H-pyrazol-1-yl)acetamide] | 6.31 nM | 100 nM
Cn1cc(-c2cc(C(F)(F)F)cc3[nH]ncc23)ccc1=O [Example 373, 1-methyl-5-(6-(trifluoromethyl)-1H-indazol-4-yl)pyridin-2(1H)-one] | 6.31 nM | 126 nM
Fc1cnc2[nH]ccc2c1-c1cc(C(F)(F)F)cc2[nH]ncc12 [Example 66, 4-(5-fluoro-1H-pyrrolo[2,3-b]pyridin-4-yl)-6-(trifluoromethyl)-1H-indazole] | 15.8 nM | 79.4 nM
C[C@H](CO)Nc1ncc(-c2cc(C(F)(F)F)cc3[nH]ncc23)cn1 [Example 206, (R)-2-(5-(6-(trifluoromethyl)-1H-indazol-4-yl)pyrimidin-2-ylamino)propan-1-ol] | 7.94 nM | 79.4 nM
O=C(O)Cn1cc(-c2cc(C(F)(F)F)cc3[nH]ncc23)ccc1=O [Example 374, 2-(2-oxo-5-(6-(trifluoromethyl)-1H-indazol-4-yl)pyridin-1(2H)-yl)acetic acid] | 63.1 nM | 1580 nM
Cc1ncc(-c2cc(C(F)(F)F)cc3[nH]ncc23)n1C [Example 146, 4-(1,2-dimethyl-1H-imidazol-5-yl)-6-(trifluoromethyl)-1H-indazole] | 100 nM | 794 nM
COc1nccc(C)c1-c1cc(C(F)(F)F)cc2[nH]ncc12 [Example 123, 4-(2-methoxy-4-methylpyridin-3-yl)-6-(trifluoromethyl)-1H-indazole] | 31.6 nM | 63.1 nM
O=C(NCCO)c1ncc(-c2cc(C(F)(F)F)cc3[nH]ncc23)cn1 [Example 286, N-(2-hydroxyethyl)-5-(6-(trifluoromethyl)-1H-indazol-4-yl)pyrimidine-2-carboxamide] | 7.94 nM | 200 nM
Cc1nc2[nH]c(O)nc2cc1-c1cc(C(F)(F)F)cc2[nH]ncc12 [Example 382, 5-methyl-6-(6-(trifluoromethyl)-1H-indazol-4-yl)-3H-imidazo[4,5-b]pyridin-2-ol] | 6.31 nM | 12.6 nM
CN(C)C(=O)Cn1c(=O)c(-c2cc(C(F)(F)F)cc3[nH]ncc23)cn(C)c1=O [Example 309, N,N-dimethyl-2-(3-methyl-2,6-dioxo-5-(6-(trifluoromethyl)-1H-indazol-4-yl)-2,3-dihydropyrimidin-1(6H)-yl)acetamide] | 20 nM | 1000 nM
OCc1ccc(-c2cc(C(F)(F)F)cc3[nH]ncc23)cc1 [Example 11, (4-(6-(trifluoromethyl)-1H-indazol-4-yl)phenyl)methanol] | 3.16 nM | 31.6 nM
CNC(=O)c1ccc(-c2cc(C(F)(F)F)cc3[nH]ncc23)cn1 [Example 97, N-methyl-5-(6-(trifluoromethyl)-1H-indazol-4-yl)picolinamide] | 2.51 nM | 50.1 nM
Nc1nc(Cl)ncc1-c1cc(C(F)(F)F)cc2[nH]ncc12 [Example 191, 2-chloro-5-(6-(trifluoromethyl)-1H-indazol-4-yl)pyrimidin-4-amine] | 25.1 nM | 794 nM
COc1cccc(-c2cc(C(F)(F)F)cc3[nH]ncc23)n1 [Example 91, 4-(6-methoxypyridin-2-yl)-6-(trifluoromethyl)-1H-indazole] | 6.31 nM | 200 nM
CCOC(=O)Cn1cc(-c2cc(C(F)(F)F)cc3[nH]ncc23)cn1 [Example 260, ethyl 2-(4-(6-(trifluoromethyl)-1H-indazol-4-yl)-1H-pyrazol-1-yl)acetate] | 6.31 nM | 100 nM
N#Cc1ccccc1-c1cc(C(F)(F)F)cc2[nH]ncc12 [Example 52, 2-(6-(trifluoromethyl)-1H-indazol-4-yl)benzonitrile] | 12.6 nM | 126 nM
CN(C)c1ncc(-c2cc(C(F)(F)F)cc3[nH]ncc23)cn1 [Example 247, N,N-dimethyl-5-(6-(trifluoromethyl)-1H-indazol-4-yl)pyrimidin-2-amine] | 3.98 nM | 50.1 nM
FC(F)(F)c1cc(-c2cnc3c(c2)OCCN3)c2cn[nH]c2c1 [Example 4, 7-(6-(trifluoromethyl)-1H-indazol-4-yl)-3,4-dihydro-2H-pyrido[3,2-b][1,4]oxazine] | 6.31 nM | 25.1 nM
Cc1cc(Cn2nc(C)c(-c3cc(C(F)(F)F)cc4[nH]ncc34)c2CO)on1 (single isomer, unassigned) [Example 412, (3-methyl-1-((3-methylisoxazol-5-yl)methyl)-4-(6-(trifluoromethyl)-1H-indazol-4-yl)-1H-pyrazol-5-yl)methanol] | 3.98 nM | 15.8 nM
Cc1nc2ccccn2c1-c1cc(C(F)(F)F)cc2[nH]ncc12 [Example 150, 4-(2-methylimidazo[1,2-a]pyridin-3-yl)-6-(trifluoromethyl)-1H-indazole] | 251 nM | 794 nM
Cc1cnc(N)c(-c2cc(C(F)(F)F)cc3[nH]ncc23)c1 [Example 193, 5-methyl-3-(6-(trifluoromethyl)-1H-indazol-4-yl)pyridin-2-amine] | 6.31 nM | 63.1 nM
Cc1c(-c2cc(C(F)(F)F)cc3[nH]ncc23)ccc(=O)n1Cc1ccccn1 [Example 407, 6-methyl-1-(pyridin-2-ylmethyl)-5-(6-(trifluoromethyl)-1H-indazol-4-yl)pyridin-2(1H)-one] | 12.6 nM | 79.4 nM
N#Cc1ccc(CO)c(-c2cc(C(F)(F)F)cc3[nH]ncc23)c1 [Example 140, 4-(hydroxymethyl)-3-(6-(trifluoromethyl)-1H-indazol-4-yl)benzonitrile] | 3.98 nM | 31.6 nM
O=C1COc2c(cccc2-c2cc(C(F)(F)F)cc3[nH]ncc23)N1 [Example 139, 8-(6-(trifluoromethyl)-1H-indazol-4-yl)-2H-benzo[b][1,4]oxazin-3(4H)-one] | 10 nM | 39.8 nM

Results, then the compound that gave them:

IC50 (human MetAP2 enzyme [1]) | IC50 (human MetAP2 enzyme [2]) | Structure (SMILES)
6.31 nM | 200 nM | NC(=O)c1ncc(-c2cc(C(F)(F)F)cc3[nH]ncc23)cn1 [Example 295, 5-(6-(trifluoromethyl)-1H-indazol-4-yl)pyrimidine-2-carboxamide]
12.6 nM | 631 nM | N#Cc1ncc(-c2cc(C(F)(F)F)cc3[nH]ncc23)cn1 [Example 198, 5-(6-(trifluoromethyl)-1H-indazol-4-yl)pyrimidine-2-carbonitrile]
6.31 nM | 100 nM | CN1CCN(C(=O)c2cc(-c3cc(C(F)(F)F)cc4[nH]ncc34)cnc2F)CC1 [Example 289, (2-fluoro-5-(6-(trifluoromethyl)-1H-indazol-4-yl)pyridin-3-yl)(4-methylpiperazin-1-yl)methanone]
12.6 nM | 31.6 nM | Cc1nn(C)cc1-c1cc(C(F)(F)F)cc2[nH]ncc12 [Example 39, 4-(1,3-dimethyl-1H-pyrazol-4-yl)-6-(trifluoromethyl)-1H-indazole]
7.94 nM | 20 nM | COc1ccc(-c2cc(C(F)(F)F)cc3[nH]ncc23)c2cccnc12 [Example 113, 8-methoxy-5-(6-(trifluoromethyl)-1H-indazol-4-yl)quinoline]
12.6 nM | 126 nM | FC(F)(F)c1cc(-c2ccc(OCC3CC3)nc2)c2cn[nH]c2c1 [Example 58, 4-(6-(cyclopropylmethoxy)pyridin-3-yl)-6-(trifluoromethyl)-1H-indazole]
20 nM | 39.8 nM | Cc1nn(CC(=O)NC(C)C)c(C)c1-c1cc(C(F)(F)F)cc2[nH]ncc12 [Example 352, 2-(3,5-dimethyl-4-(6-(trifluoromethyl)-1H-indazol-4-yl)-1H-pyrazol-1-yl)-N-isopropylacetamide]
6.31 nM | 50.1 nM | CS(=O)(=O)c1cccc(-c2cc(C(F)(F)F)cc3[nH]ncc23)c1 [Example 103, 4-(3-(methylsulfonyl)phenyl)-6-(trifluoromethyl)-1H-indazole]
25.1 nM | 794 nM | O=S(=O)(CCO)c1ccccc1-c1cc(C(F)(F)F)cc2[nH]ncc12 [Example 182, 2-(2-(6-(trifluoromethyl)-1H-indazol-4-yl)phenylsulfonyl)ethanol]
39.8 nM | 1000 nM | O=C(O)Cn1cc(-c2cc(C(F)(F)F)cc3[nH]ncc23)cn1 [Example 261, 2-(4-(6-(trifluoromethyl)-1H-indazol-4-yl)-1H-pyrazol-1-yl)acetic acid]
126 nM | 5010 nM | Cn1ccnc1-c1cc(C(F)(F)F)cc2[nH]ncc12 [Example 147, 4-(1-methyl-1H-imidazol-2-yl)-6-(trifluoromethyl)-1H-indazole]
20 nM | 794 nM | CN(C)C(=O)c1c[nH]c(=O)c(-c2cc(C(F)(F)F)cc3[nH]ncc23)c1 [Example 334, N,N-dimethyl-6-oxo-5-(6-(trifluoromethyl)-1H-indazol-4-yl)-1,6-dihydropyridine-3-carboxamide]
3.16 nM | 100 nM | COc1ncc(-c2cc(C(F)(F)F)cc3[nH]ncc23)cn1 [Example 246, 4-(2-methoxypyrimidin-5-yl)-6-(trifluoromethyl)-1H-indazole]
7.94 nM | 100 nM | NC(=O)c1cc(-c2cc(C(F)(F)F)cc3[nH]ncc23)cnc1N [Example 233, 2-amino-5-(6-(trifluoromethyl)-1H-indazol-4-yl)nicotinamide]

From patent publication US9434743B2, “Indazole derivatives” (TAKEDA PHARMACEUTICAL COMPANY LIMITED, priority 2012, dated 2016)
